{"source": "patent US12329753B2", "about": "“Phosphodiesterase inhibitor treatment” (Cyrano Therapeutics, Inc., priority 2008, dated 2025)", "assay_type_in_all_cases": "in vivo, human", "key": {"patients with hyposmia [1]": {"tested_on": "patients with hyposmia", "experiment": "Side effects of intranasal theophylline", "conditions": "intranasal 20 μg per naris once a day", "procedure": "The patients inserted a plastic syringe containing 0.4 ml of fluid (20 μg theophylline) into each naris once a day. […] The drug dose was delivered through a plastic nipple which fitted snugly onto the filled syringe which was attached directly to the nipple. One nipple was supplied for each set of two syringes in each application kit. The patient fitted the nipple on one syringe, placed the nipple securely into the lower naris and injected the contents of the syringe directly into the lower vault of one naris accompanied by a modest inhalation. This technique was then used for the second syringe used for the other naris. The patients were instructed to administer the drug either seated or standing with their head in an erect, vertical position."}, "patients with hyposmia [2]": {"tested_on": "patients with hyposmia", "experiment": "Subjective overall smell function response to oral theophylline", "description": "Independently, patients were also required to grade their ability to smell daily on a scale from 0-100, with 0 reflecting no overall smell function over a 24 hour period, 100 reflecting normal overall smell function over this period and numbers between 0-100 reflecting their estimation of their overall ability to smell odors over this period.\n(§1) After determination of hyposmia, patients were treated in an open label, fixed design, controlled open trial. Patients were given an oral extended release theophylline in divided daily doses taken in the middle of breakfast and lunch. All patients were initially given 200 mg of theophylline; changes in this dose were made based upon subjective responses to therapy. If at a subsequent return visit, patients reported ≥5% subjective improvement in overall smell function, they continued on this same dose of theophylline and were reevaluated after four to six months of continued treatment. Results from any subsequent return from these improved patients were not included in any subsequent data report. All subsequent comparisons between treated and untreated patients were made only between those patients continuing in the study compared to their own measurements obtained in the untreated state. If patients reported <5% subjective improvement, their theophylline dose was increased by 200 mg daily and they were scheduled for retesting at the study site after two to four months at this new dosage. For patients that reported <5% improvement, this sequence continued until patients reached 800 mg of theophylline, at which time the study was considered completed.\n(§2) Patients returned for reevaluation after two to four months of treatment. Measurements of blood serum theophylline were measured by a fluorescence polarization assay (Abbott, Chicago, IL). At this time, subjective changes in smell function were measured independently (compared to patient's memory of previous normal smell function monitored by use of the patients' daily measurements) using the scale from −100-0-+100 previously described (vs). After independently recording their subjective responses, smell function was measured for all four odors with DT, RT, ME and H determined without recourse to prior measurements.\nSubjective overall changes in smell acuity were reported by telephone and by FAX or email at two-four month intervals after treatment was initiated using the standardized form in which they measured daily changes in smell acuity using the −100-0-+100 scale as noted above (vs). Using the same criteria noted above, if at their initial two-four month call-in they reported improvement in smell acuity of ≥5%, they continued at 200 mg and returned to the study site at four-six months on this treatment dose. If they reported improvement in smell acuity of <5% their dose of theophylline was increased to 400 mg for an additional two-four months and they then called the study site at the end of this period."}, "patients with hyposmia [3]": {"tested_on": "patients with hyposmia", "experiment": "Hedonic (H) value of odors, -100-0-+100 scale, open trial of oral theophylline", "description": "In addition, each patient graded the hedonic (H) value of each odor presented for these same odor concentrations (from 10^−2M—an absolute odor concentration using a −100-0-+100 scale). […] Results were obtained by calculating the arithmetical sum of each correct recognition response for each odor with respect to its pleasantness, unpleasantness or neutrality. Arithmetic M±SEM were obtained for each treatment group for each odor presented.\nas §1, §2"}, "asthmatic patients": {"tested_on": "asthmatic patients", "experiment": "sGaw after inhaled dry powder in asthmatic patients, single blind study (Examples 5, 6)", "conditions": "dry powder 2 mg inhaled", "description": "(§3) To test this theory, asthmatic patients are enrolled in a dose escalating single blind study. On arrival to the clinic, subjects are allowed to rest for 20 minutes before baseline measurements of FEV1 (six recordings) and sGaw (five recordings) are made. Subjects receive a dry powder dispenser loaded with a dose of 2 mg theophylline or a dry powder carrier. […] After each inhalation, measurements of sGaw are made at 1, 3, 5, 10, 15, 20, 25, and 30 minutes.\nOn completion of the last recording, subjects inhale a 200 μg dose of salbutamol from a metered inhaler and a further measurement of sGaw is made after 15 minutes. Subjects are also monitored for coughing and are questioned about the taste of the drug.\nas §3, with “Asthmatic patients” for “To test this theory, asthmatic patients”, “of 1” for “of 2”, “mg IBMX formulated as a dry powder” for “mg theophylline”\nOn completion of the last recording, subjects inhale a 200 μg dose of salbutamol from a metered inhaler and a further measurement of sGaw mad after 15 minutes. Subjects are also be monitored for coughing and are questioned about the taste of the drug."}, "patients with hyposmia [4]": {"tested_on": "patients with hyposmia", "experiment": "Pilot study of intranasal theophylline, subjective taste and smell response", "source_text": "Ten patients with hyposmia were selected from among 400 patients with hyposmia to participate in a pilot study to determine safety and efficacy of intranasal theophylline for the treatment of hyposmia. […] Selection for inclusion in the intranasal study was based upon several criteria. 1) non-response to oral theophylline; 2) severe side effects with oral theophylline that prevented reaching a dose of sufficient strength to restore smell function; and/or 3) preference for intranasal medication over oral medication.\nSubjective responses to treatment were obtained independent of any interaction with the clinical staff by using a scale of 0-100 to measure response of taste function and smell function to treatment with 0 indicating no response, 100 indicating return to normal function and intermediate numbers indicating an intermediate response.\nThe patients inserted a plastic syringe containing 0.4 ml of fluid (20 μg theophylline) into each naris once a day. […] The drug dose was delivered through a plastic nipple which fitted snugly onto the filled syringe which was attached directly to the nipple. One nipple was supplied for each set of two syringes in each application kit. The patient fitted the nipple on one syringe, placed the nipple securely into the lower naris and injected the contents of the syringe directly into the lower vault of one naris accompanied by a modest inhalation. […]"}, "[5]": {"conditions": "oral 400 mg daily, 2-6 months, all patients (120), mean ± SEM"}, "[6]": {"conditions": "oral 600 mg daily, 2-12 months, all patients (160), mean ± SEM"}, "[7]": {"conditions": "oral 800 mg daily, 2-12 months, all patients (28), mean ± SEM"}, "[8]": {"conditions": "oral 800 mg, Type I hyposmia (12), mean ± SEM"}}, "note": "Marks after values point to notes of the source that are not given here."}
{"smiles": "Cn1c(=O)c2[nH]cnc2n(C)c1=O", "note": "[theophylline]", "values": [{"measurement": "side effects", "setting": "patients with hyposmia [1]", "result": "no side effects"}, {"measurement": "patients improved ≥5% (subjective)", "setting": "patients with hyposmia [2]; oral 200 mg daily, 34 of 199 returning patients", "result": 17.1, "unit": "%"}, {"measurement": "improved patients who considered smell function returned to normal", "setting": "patients with hyposmia [2]; oral 200 mg daily, nine of the 34 improved", "result": 26.5, "unit": "%"}, {"measurement": "patients reporting return to normal", "setting": "patients with hyposmia [2]; oral 200 mg, one of the improved non-returning patients", "result": 14.3, "unit": "%"}, {"measurement": "patients reporting >5% improvement", "setting": "patients with hyposmia [2]; oral 200 mg, seven of the 15 non-returning patients", "result": 46.7, "unit": "%"}, {"measurement": "patients improved ≥5% (subjective)", "setting": "patients with hyposmia [2]; oral 400 mg daily, 35 of 120 patients", "result": 29.2, "unit": "%"}, {"measurement": "improved patients who considered smell function returned to normal", "setting": "patients with hyposmia [2]; oral 400 mg daily, three of the 35 improved", "result": 8.6, "unit": "%"}, {"measurement": "patients who considered smell function returned to normal", "setting": "patients with hyposmia [2]; oral 600 mg daily, 17 of 160 patients", "result": 10.6, "unit": "%"}, {"measurement": "patients improved ≥5% (subjective)", "setting": "patients with hyposmia [2]; oral 600 mg daily, 66 of 160 patients", "result": 41.2, "unit": "%"}, {"measurement": "patients improved ≥5% (subjective)", "setting": "patients with hyposmia [2]; oral 800 mg daily, 15 of 28 patients", "result": 53.6, "unit": "%"}, {"measurement": "patients who considered smell function returned to normal", "setting": "patients with hyposmia [2]; oral 800 mg daily, three patients", "result": 33, "unit": "%"}, {"measurement": "improved patients reporting return to normal", "setting": "patients with hyposmia [2]; oral 200-600 mg, Type III hyposmia, 3 of 5", "result": 60, "unit": "%"}, {"measurement": "improved patients reporting return to normal", "setting": "patients with hyposmia [2]; oral 200-800 mg, Type I hyposmia, 5 of 32", "result": 15.6, "unit": "%"}, {"measurement": "improved patients reporting return to normal", "setting": "patients with hyposmia [2]; oral 200-800 mg, Type II hyposmia, 26 of 129", "result": 20.2, "unit": "%"}, {"measurement": "time course of subjective response", "setting": "patients with hyposmia [2]; oral theophylline", "result": "little or no improvement before four-six weeks of treatment"}, {"measurement": "responsive patients who considered smell function returned to normal", "setting": "patients with hyposmia [2]; whole study, 34 of 157", "result": 21.7, "unit": "%"}, {"measurement": "increase in H, amyl acetate", "setting": "patients with hyposmia [3]; oral 200 mg", "result": 2, "unit": "%"}, {"measurement": "increase in H, nitrobenzene", "setting": "patients with hyposmia [3]; oral 200 mg", "result": 2, "unit": "%"}, {"measurement": "increase of H value, amyl acetate", "setting": "patients with hyposmia [3]; oral 200 mg, not statistically significant", "result": 50, "unit": "%"}, {"measurement": "change in H (more pleasant), amyl acetate", "setting": "patients with hyposmia [3]; oral 400 mg", "result": 1, "unit": "%"}, {"measurement": "change in H (more pleasant), nitrobenzene", "setting": "patients with hyposmia [3]; oral 400 mg", "result": 4, "unit": "%"}, {"measurement": "change in H, pyridine", "setting": "patients with hyposmia [3]; oral 400 mg", "result": 9, "unit": "%"}, {"measurement": "change in H, thiophene", "setting": "patients with hyposmia [3]; oral 400 mg", "result": 7, "unit": "%"}, {"measurement": "decrease of H value, thiophene", "setting": "patients with hyposmia [3]; oral 400 mg", "result": 40, "unit": "%"}, {"measurement": "hedonic estimation (H), amyl acetate", "setting": "patients with hyposmia [3]; [5]", "result": "3 ± 2^ %"}, {"measurement": "hedonic estimation (H), nitrobenzene", "setting": "patients with hyposmia [3]; [5]", "result": "8 ± 3^a %"}, {"measurement": "hedonic estimation (H), pyridine", "setting": "patients with hyposmia [3]; [5]", "result": "−26 ± 3^b %"}, {"measurement": "hedonic estimation (H), thiophene", "setting": "patients with hyposmia [3]; [5]", "result": "−19 ± 2^d %"}, {"measurement": "increase of H value, nitrobenzene", "setting": "patients with hyposmia [3]; oral 400 mg, not statistically significant", "result": 50, "unit": "%"}, {"measurement": "hedonic estimation (H), amyl acetate", "setting": "patients with hyposmia [3]; [6]", "result": "4 ± 1", "unit": "%"}, {"measurement": "hedonic estimation (H), nitrobenzene", "setting": "patients with hyposmia [3]; [6]", "result": "8 ± 2^d %"}, {"measurement": "hedonic estimation (H), pyridine", "setting": "patients with hyposmia [3]; [6]", "result": "−19 ± 2 ^ %"}, {"measurement": "hedonic estimation (H), thiophene", "setting": "patients with hyposmia [3]; [6]", "result": "−14 ± 2 ^ %"}, {"measurement": "decrease of H value, pyridine", "setting": "patients with hyposmia [3]; oral 800 mg", "result": 55, "unit": "%"}, {"measurement": "decrease of H value, thiophene", "setting": "patients with hyposmia [3]; oral 800 mg", "result": 37, "unit": "%"}, {"measurement": "increase of H value, amyl acetate", "setting": "patients with hyposmia [3]; oral 800 mg", "result": "about 50%"}, {"measurement": "increase of H value, nitrobenzene", "setting": "patients with hyposmia [3]; oral 800 mg", "result": "about 50%"}, {"measurement": "hedonic estimation (H), amyl acetate", "setting": "patients with hyposmia [3]; [7]", "result": "8 ± 5", "unit": "%"}, {"measurement": "hedonic estimation (H), nitrobenzene", "setting": "patients with hyposmia [3]; [7]", "result": "13 ± 7 ^ %"}, {"measurement": "hedonic estimation (H), pyridine", "setting": "patients with hyposmia [3]; [7]", "result": "−22 ± 6", "unit": "%"}, {"measurement": "hedonic estimation (H), thiophene", "setting": "patients with hyposmia [3]; [7]", "result": "−15 ± 4", "unit": "%"}, {"measurement": "hedonic value (row printed R), amyl acetate", "setting": "patients with hyposmia [3]; [8]", "result": "−1 ± 4 ^ %"}, {"measurement": "hedonic value (row printed R), nitrobenzene", "setting": "patients with hyposmia [3]; [8]", "result": "2 ± 2^a %"}, {"measurement": "hedonic value (row printed R), pyridine", "setting": "patients with hyposmia [3]; [8]", "result": "−11 ± 5^a %"}, {"measurement": "hedonic value (row printed R), thiophene", "setting": "patients with hyposmia [3]; [8]", "result": "−4 ± 2^a %"}, {"measurement": "increase in sGaw versus 200 μg salbutamol", "setting": "asthmatic patients", "result": "comparable to that produced by salbutamol"}, {"measurement": "sGaw above baseline measurement", "setting": "asthmatic patients; after 30 minutes", "result": 20, "unit": "%"}, {"measurement": "subjective improvement in both taste and smell function over prior results with oral theophylline", "setting": "patients with hyposmia [4]; intranasal 20 μg per naris once a day, 4 weeks, six of eight patients", "result": "10-20%"}, {"measurement": "further loss of smell while in the study", "setting": "patients with hyposmia [4]; intranasal 20 μg per naris, after stopping oral theophylline", "result": "No patient exhibited a further of loss of smell"}]}
